In ChEMBL document CHEMBL5620406, “Synthesis and biological evaluation of novel pyrazole amides as potent mitochondrial complex I inhibitors” (Eur J Med Chem, 2023):
Calls of active or inactive are those of the source. No cut-off for these calls is given here.

Experiments:
[1] = target: Cytochrome P450 2D6 (Homo sapiens, UniProt P10635); experiment: Inhibition of CYP2D6 in human liver microsomes incubated for 20 mins in presence of NADPH by LC/MS/MS analysis; assay type: ADME, Microsome
[2] = species on record: Homo sapiens; experiment: Inhibition of mitochondrial complex I (unknown origin) at 1 uM incubated for 15 mins by microplate reader analysis relative to control
[3] = system: HCT-116; experiment: Antiproliferative activity against human HCT-116 cells assessed as inhibition of cell growth at 0.1 nM incubated for 96 hrs in presence of galactose by MTT assay; assay type: functional, cell-based
[4] = system: HCT-116; experiment: Induction of mitochondrial dysfunction in human HCT-116 cells assessed as attenuation of ATP coupling oxygen consumption rate incubated for 24 hrs by Seahorse XFe24 analyzer; assay type: functional, cell-based; settings: dose 2-10 nM
[5] = system: HCT-116; experiment: Induction of mitochondrial dysfunction in human HCT-116 cells assessed as attenuation of oxygen consumption rate at 2 nM incubated for 24 hrs by Seahorse XFe24 analyzer; assay type: functional, cell-based
[6] = system: HCT-116; experiment: Induction of mitochondrial dysfunction in human HCT-116 cells assessed as attenuation of oxygen consumption rate at 10 nM incubated for 24 hrs by Seahorse XFe24 analyzer; assay type: functional, cell-based
[7] = system: HCT-116; experiment: Induction of mitochondrial dysfunction in human HCT-116 cells assessed as increase in extracellular acidification rate at 2 to 10 nM incubated for 24 hrs by Seahorse XFe24 analyzer; assay type: functional, cell-based; settings: dose 2-10 nM
[8] = system: KG-1; experiment: Antitumor activity against human KG-1 cells xenografted in NOD-SCID mouse assessed as tumor growth inhibition at 5 mg/kg, ip qd administered 5 consecutive days per week for 24 days; assay type: functional; settings: KG-1, 576 h, time 24 day, read-out: TGI
[9] = Acute toxicity in BALB/c mouse assessed as decrease in behavioral activity at 68 mg/kg, ip measured for 6 days; assay type: organism-based; settings: in vivo, 144 h, time 6 day
[10] = Acute toxicity in BALB/c mouse assessed as effect on TP level at 68 mg/kg, ip measured on day 14; assay type: organism-based; settings: in vivo, 336 h, time 14 day
[11] = Acute toxicity in BALB/c mouse assessed as effect on ALP level at 68 mg/kg, ip measured on day 14; assay type: organism-based; settings: in vivo, 336 h, time 14 day
[12] = Acute toxicity in BALB/c mouse assessed as effect on GLU level at 68 mg/kg, ip measured on day 14; assay type: organism-based; settings: in vivo, 336 h, time 14 day
[13] = Acute toxicity in BALB/c mouse assessed as effect on WBC level at 68 mg/kg, ip measured on day 14; assay type: organism-based; settings: in vivo, 336 h, time 14 day
[14] = Acute toxicity in BALB/c mouse assessed as effect on RBC level at 68 mg/kg, ip measured on day 14; assay type: organism-based, Erythrocyte; settings: in vivo, 336 h, time 14 day
[15] = Acute toxicity in BALB/c mouse assessed as effect on PLT level at 68 mg/kg, ip measured on day 14; assay type: organism-based; settings: in vivo, 336 h, time 14 day
[16] = Acute toxicity in BALB/c mouse assessed as effect on NEUT level at 68 mg/kg, ip measured on day 14; assay type: organism-based; settings: in vivo, 336 h, time 14 day
[17] = Acute toxicity in BALB/c mouse assessed as heart damage at 40 to 68 mg/kg, ip measured on day 14 by H and E staining based analysis; assay type: organism-based; settings: in vivo, 336 h, dose 40-68 mg/kg, time 14 day
[18] = Acute toxicity in BALB/c mouse assessed as liver damage at 40 to 68 mg/kg, ip measured on day 14 by H and E staining based analysis; assay type: organism-based; settings: in vivo, 336 h, dose 40-68 mg/kg, time 14 day
[19] = Acute toxicity in BALB/c mouse assessed as spleen damage at 40 to 68 mg/kg, ip measured on day 14 by H and E staining based analysis; assay type: organism-based; settings: in vivo, 336 h, dose 40-68 mg/kg, time 14 day
[20] = Acute toxicity in BALB/c mouse assessed as lung damage at 40 to 68 mg/kg, ip measured on day 14 by H and E staining based analysis; assay type: organism-based; settings: in vivo, 336 h, dose 40-68 mg/kg, time 14 day
[21] = Acute toxicity in ip dosed BALB/c mouse assessed as maximum tolerated dose measured on day 14; assay type: organism-based; settings: in vivo, time 14 day
[22] = Toxicity in NOD-SCID mouse xenografted with human KG-1 cells assessed as effect on ALB level at 5 mg/kg, ip qd administered 5 consecutive days per week for 24 days; assay type: organism-based; settings: in vivo, 576 h, time 24 day
[23] = Toxicity in NOD-SCID mouse xenografted with human KG-1 cells assessed as effect on AST level at 5 mg/kg, ip qd administered 5 consecutive days per week for 24 days; assay type: organism-based; settings: in vivo, 576 h, time 24 day
[24] = Toxicity in NOD-SCID mouse xenografted with human KG-1 cells assessed as effect on BILT level at 5 mg/kg, ip qd administered 5 consecutive days per week for 24 days; assay type: organism-based; settings: in vivo, 576 h, time 24 day
[25] = Toxicity in NOD-SCID mouse xenografted with human KG-1 cells assessed as effect on CHO2 level at 5 mg/kg, ip qd administered 5 consecutive days per week for 24 days; assay type: organism-based; settings: in vivo, 576 h, time 24 day
[26] = Toxicity in NOD-SCID mouse xenografted with human KG-1 cells assessed as effect on GLU level at 5 mg/kg, ip qd administered 5 consecutive days per week for 24 days; assay type: organism-based; settings: in vivo, 576 h, time 24 day
[27] = Toxicity in NOD-SCID mouse xenografted with human KG-1 cells assessed as effect on LDL level at 5 mg/kg, ip qd administered 5 consecutive days per week for 24 days; assay type: organism-based; settings: in vivo, 576 h, time 24 day
[28] = Toxicity in NOD-SCID mouse xenografted with human KG-1 cells assessed as effect on TP level at 5 mg/kg, ip qd administered 5 consecutive days per week for 24 days; assay type: organism-based; settings: in vivo, 576 h, time 24 day
[29] = Toxicity in NOD-SCID mouse xenografted with human KG-1 cells assessed as effect on WBC count at 5 mg/kg, ip qd administered 5 consecutive days per week for 24 days; assay type: organism-based; settings: in vivo, 576 h, time 24 day
[30] = Toxicity in NOD-SCID mouse xenografted with human KG-1 cells assessed as effect on HGB count at 5 mg/kg, ip qd administered 5 consecutive days per week for 24 days; assay type: organism-based; settings: in vivo, 576 h, time 24 day
[31] = Toxicity in NOD-SCID mouse xenografted with human KG-1 cells assessed as effect on MCV level at 5 mg/kg, ip qd administered 5 consecutive days per week for 24 days; assay type: organism-based; settings: in vivo, 576 h, time 24 day
[32] = Toxicity in NOD-SCID mouse xenografted with human KG-1 cells assessed as effect on RDV at 5 mg/kg, ip qd administered 5 consecutive days per week for 24 days; assay type: organism-based; settings: in vivo, 576 h, time 24 day
[33] = Toxicity in NOD-SCID mouse xenografted with human KG-1 cells assessed as effect on PLT level at 5 mg/kg, ip qd administered 5 consecutive days per week for 24 days; assay type: organism-based; settings: in vivo, 576 h, time 24 day
[34] = Toxicity in NOD-SCID mouse xenografted with human KG-1 cells assessed as effect on kidney damage at 5 mg/kg, ip qd administered 5 consecutive days per week for 24 days by H and E staining based analysis; assay type: organism-based; settings: in vivo, 576 h, time 24 day
[35] = target: Cytochrome P450 2C9 (Homo sapiens, UniProt P11712); experiment: Inhibition of CYP2C9 in human liver microsomes incubated for 10 mins in presence of NADPH by LC/MS/MS analysis; assay type: ADME, Microsome
Chain of Cytochrome P450 2C9 (P11712 whole entry): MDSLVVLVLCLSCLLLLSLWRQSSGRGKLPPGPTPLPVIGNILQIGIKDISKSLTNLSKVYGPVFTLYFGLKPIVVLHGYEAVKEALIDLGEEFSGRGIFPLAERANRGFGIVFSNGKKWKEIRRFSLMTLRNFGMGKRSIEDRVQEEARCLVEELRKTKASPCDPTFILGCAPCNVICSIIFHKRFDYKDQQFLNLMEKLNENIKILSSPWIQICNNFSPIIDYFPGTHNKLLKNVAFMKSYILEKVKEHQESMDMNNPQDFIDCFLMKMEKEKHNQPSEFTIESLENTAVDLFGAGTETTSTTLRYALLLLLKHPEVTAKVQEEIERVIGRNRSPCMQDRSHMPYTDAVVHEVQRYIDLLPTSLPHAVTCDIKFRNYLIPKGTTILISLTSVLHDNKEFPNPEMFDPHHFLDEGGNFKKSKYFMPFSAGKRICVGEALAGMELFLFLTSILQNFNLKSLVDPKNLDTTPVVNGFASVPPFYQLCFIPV

[36] = target: Cytochrome P450 3A4 (Homo sapiens, UniProt P08684); experiment: Inhibition of CYP3A4 in human liver microsomes incubated for 5 mins in presence of NADPH by LC/MS/MS analysis; assay type: ADME, Microsome
Chain of Cytochrome P450 3A4 (P08684 whole entry): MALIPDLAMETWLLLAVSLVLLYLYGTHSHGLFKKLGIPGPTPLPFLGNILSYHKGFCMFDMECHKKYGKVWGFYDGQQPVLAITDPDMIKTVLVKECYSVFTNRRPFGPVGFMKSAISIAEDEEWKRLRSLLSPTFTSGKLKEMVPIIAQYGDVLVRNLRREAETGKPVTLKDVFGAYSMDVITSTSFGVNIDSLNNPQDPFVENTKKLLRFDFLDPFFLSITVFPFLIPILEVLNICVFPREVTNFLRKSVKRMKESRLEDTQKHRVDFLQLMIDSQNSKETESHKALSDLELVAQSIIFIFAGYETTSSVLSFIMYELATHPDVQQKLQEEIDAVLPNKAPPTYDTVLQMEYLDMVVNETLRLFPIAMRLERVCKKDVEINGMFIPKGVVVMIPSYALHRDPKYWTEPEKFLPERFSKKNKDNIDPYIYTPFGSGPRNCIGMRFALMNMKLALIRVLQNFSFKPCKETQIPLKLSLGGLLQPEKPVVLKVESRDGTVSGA

Chain of Cytochrome P450 2D6 (P10635 whole entry): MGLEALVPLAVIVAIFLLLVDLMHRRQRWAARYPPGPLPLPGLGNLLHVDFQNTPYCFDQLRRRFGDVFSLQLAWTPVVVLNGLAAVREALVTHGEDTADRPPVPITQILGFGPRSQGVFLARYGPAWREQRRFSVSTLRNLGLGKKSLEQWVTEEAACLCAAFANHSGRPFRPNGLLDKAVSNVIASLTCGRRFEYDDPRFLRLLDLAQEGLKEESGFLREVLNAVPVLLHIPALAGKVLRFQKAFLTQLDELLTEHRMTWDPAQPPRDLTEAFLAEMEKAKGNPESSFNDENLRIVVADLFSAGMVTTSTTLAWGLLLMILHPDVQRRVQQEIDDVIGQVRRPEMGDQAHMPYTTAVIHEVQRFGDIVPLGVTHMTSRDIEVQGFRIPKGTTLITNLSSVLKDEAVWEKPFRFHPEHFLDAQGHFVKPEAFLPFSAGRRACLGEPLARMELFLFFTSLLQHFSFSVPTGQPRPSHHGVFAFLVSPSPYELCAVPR

| Structure (SMILES) | IC50 [1] [µM] | inhibition [2] [%] | Activity [3] | Activity [4] | Activity [5] | Activity [6] | Activity [7] | inhibition in vivo at 5 mg/kg [8] [%] | Activity [9] | Activity [10] | Activity [11] | Activity [12] | Activity [13] | Activity [14] | Activity [15] | Activity [16] | Activity [17] | Activity [18] | Activity [19] | Activity [20] | other results |
| --- | --- | --- | --- | --- | --- | --- | --- | --- | --- | --- | --- | --- | --- | --- | --- | --- | --- | --- | --- | --- | --- |
| Cc1cc(C(=O)Nc2ccc(C(F)(F)F)cc2)nn1Cc1cccc(N2CCN(C(=O)C3CC3)CC2)c1 | > 10 | 55.4 | Active | Dose-Dependent Effect | Active | Active | Active | 65.9 | Non-Toxic | Non-Toxic | Non-Toxic | Non-Toxic | Non-Toxic | Non-Toxic | Non-Toxic | Non-Toxic | Non-Toxic | Non-Toxic | Non-Toxic | Non-Toxic | MTD at 336 h [21]: ~6 mg/kg; Activity [22]: Non-Toxic; Activity [23]: Non-Toxic; Activity [24]: Non-Toxic; Activity [25]: Non-Toxic; Activity [26]: Non-Toxic; Activity [27]: Non-Toxic; Activity [28]: Non-Toxic; Activity [29]: Non-Toxic; Activity [30]: Non-Toxic; Activity [31]: Non-Toxic; Activity [32]: Non-Toxic; Activity [33]: Non-Toxic; Activity [34]: Non-Toxic; IC50 [35]: 1010 nM; IC50 [36]: 7.48 µM |
| Cc1cc(C(=O)Nc2ccc(OC(F)(F)F)cc2)nn1Cc1cccc(N2CCN(C(=O)C3CC3)CC2)c1 | > 10 | 48.6 | Active | Dose-Dependent Effect | Active | Active | Active | 61.5 | Non-Toxic | Non-Toxic | Non-Toxic | Non-Toxic | Non-Toxic | Non-Toxic | Non-Toxic | Non-Toxic | Non-Toxic | Non-Toxic | Non-Toxic | Non-Toxic | MTD at 336 h [21]: ~6 mg/kg; Activity [22]: Non-Toxic; Activity [23]: Non-Toxic; Activity [24]: Non-Toxic; Activity [25]: Non-Toxic; Activity [26]: Non-Toxic; Activity [27]: Non-Toxic; Activity [28]: Non-Toxic; Activity [29]: Non-Toxic; Activity [30]: Non-Toxic; Activity [31]: Non-Toxic; Activity [32]: Non-Toxic; Activity [33]: Non-Toxic; Activity [34]: Non-Toxic; IC50 [35]: 1830 nM; IC50 [36]: 6.99 µM |
